Results taken from PubChem BioAssay AID248 (DTP/NCI, 2004).
Several values for one entry are separate records, joined by “and”; a condition that tells them apart may be missing. Identical values can stand only once. Toxic doses and inconclusive results are not listed.

Tested on: L1210 leukemia ip in BDF1 mice, survival T/C
Assay: NCI In Vivo Anticancer Drug Screen. Data for tumor model L1210 Leukemia (intraperitoneal) in B6D2F1 (BDF1) mice
Conditions: endpoint: mean survival time, higher = longer survival
In short: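 Survival endpoint. Drug-treated group vs vehicle group, expressed as T divided by C. Tumor passaged by transplantation.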

[1] = dose: 100.0 mg/kg/injection, schedule: Q01DX009 (ip), vehicle: saline
[2] = dose: 100.0 mg/kg/injection, schedule: Q04DX003 (ip), vehicle: saline
[3] = dose: 200.0 mg/kg/injection, schedule: Q04DX003 (ip), vehicle: saline
[4] = dose: 100.0 mg/kg/injection, schedule: Q01DX005 (ip), vehicle: saline
[5] = dose: 200.0 mg/kg/injection, schedule: Q01DX005 (ip), vehicle: saline
[6] = dose: 50.0 mg/kg/injection, schedule: Q01DX001 (ip), vehicle: saline
[7] = dose: 100.0 mg/kg/injection, schedule: Q01DX001 (ip), vehicle: saline
[8] = dose: 200.0 mg/kg/injection, schedule: Q01DX001 (ip), vehicle: saline
[9] = dose: 400.0 mg/kg/injection, schedule: Q01DX001 (ip), vehicle: saline
[10] = dose: 100.0 mg/kg/injection, schedule: Q01DX001 (ip), vehicle: saline with Tween-80
[11] = dose: 50.0 mg/kg/injection, schedule: Q01DX009 (ip), vehicle: Klucel (hydroxypropylcellulose) (HPC)
[12] = dose: 100.0 mg/kg/injection, schedule: Q01DX009 (ip), vehicle: Klucel (hydroxypropylcellulose) (HPC)
[13] = dose: 100.0 mg/kg/injection, schedule: Q04DX003 (ip), vehicle: Klucel (hydroxypropylcellulose) (HPC)
[14] = dose: 200.0 mg/kg/injection, schedule: Q01DX009 (ip), vehicle: Klucel (hydroxypropylcellulose) (HPC)
[15] = dose: 200.0 mg/kg/injection, schedule: Q04DX003 (ip), vehicle: Klucel (hydroxypropylcellulose) (HPC)
[16] = dose: 100.0 mg/kg/injection, schedule: Q01DX009 (ip), vehicle: saline with Tween-80
[17] = dose: 200.0 mg/kg/injection, schedule: Q01DX009 (ip), vehicle: saline with Tween-80

In the case of `CCC(=O)c1ccc2c(c1)N(C(C)CN(C)C)c1ccccc1S2` (configuration not stated), the T/C (dose: 1.56 mg/kg/injection, schedule: Q03HX024 (ip), vehicle: saline) is reported as 100 % of control, the T/C (dose: 3.12 mg/kg/injection, schedule: Q03HX024 (ip), vehicle: saline) is reported as 102 % of control and the T/C (dose: 6.25 mg/kg/injection, schedule: Q01DX009 (ip), vehicle: saline) is reported as 100 % of control and 106 % of control. For the same compound, the T/C (dose: 6.25 mg/kg/injection, schedule: Q03HX024 (ip), vehicle: saline) was 100 % of control, the T/C (dose: 6.25 mg/kg/injection, schedule: Q04DX003 (ip), vehicle: saline) was 101 % of control and the T/C (dose: 12.5 mg/kg/injection, schedule: Q01DX009 (ip), vehicle: saline) was 104 % of control and 109 % of control and 110 % of control. The T/C (dose: 12.5 mg/kg/injection, schedule: Q03HX024 (ip), vehicle: saline) was 100 % of control, the T/C (dose: 12.5 mg/kg/injection, schedule: Q04DX003 (ip), vehicle: saline) was 103 % of control and the T/C (dose: 18.75 mg/kg/injection, schedule: Q01DX001 (ip), vehicle: saline) was 107 % of control. The T/C (dose: 25.0 mg/kg/injection, schedule: Q01DX009 (ip), vehicle: saline) was 106 % of control and 110 % of control and 116 % of control, the T/C (dose: 25.0 mg/kg/injection, schedule: Q04DX003 (ip), vehicle: saline) was 103 % of control and 104 % of control and the T/C (dose: 37.5 mg/kg/injection, schedule: Q01DX001 (ip), vehicle: saline) was 115 % of control. For the same compound, the T/C (dose: 50.0 mg/kg/injection, schedule: Q01DX009 (ip), vehicle: saline) was 109 % of control and 118 % of control, the T/C (dose: 50.0 mg/kg/injection, schedule: Q04DX003 (ip), vehicle: saline) was 109 % of control and 120 % of control and the T/C (dose: 75.0 mg/kg/injection, schedule: Q01DX001 (ip), vehicle: saline) was 109 % of control. For the same compound, the T/C [1] was 90 % of control and the T/C (dose: 150.0 mg/kg/injection, schedule: Q01DX001 (ip), vehicle: saline) was 96 % of control.

For `NC(Cc1ccc(O)c(I)c1)C(=O)O` (configuration not stated), the T/C [1] was 96 % of control, the T/C [2] was 101 % of control and the T/C (dose: 200.0 mg/kg/injection, schedule: Q01DX009 (ip), vehicle: saline) was 98 % of control. The T/C [3] was 93 % of control and the T/C (dose: 400.0 mg/kg/injection, schedule: Q04DX003 (ip), vehicle: saline) was 100 % of control.

`CN(C)N=Nc1cn(C2CC(O)C(CO)O2)c(=O)[nH]c1=O` (configuration not stated) was tested, and the T/C [4] was 95 % of control and the T/C [5] was 101 % of control.

`CN(C)CCCN1CC2CCCC1O2` (configuration not stated) was tested, and the T/C [6] was 90 % of control, the T/C [7] was 102 % of control and the T/C [8] was 100 % of control. The T/C [9] was 94 % of control.

In the case of `C1CN2CCOB(O1)OCC2`, the T/C (dose: 69.0 mg/kg/injection, schedule: Q01DX009 (ip), vehicle: other) is reported as 103 % of control, the T/C (dose: 138.0 mg/kg/injection, schedule: Q01DX009 (ip), vehicle: other) is reported as 98 % of control and the T/C (dose: 275.0 mg/kg/injection, schedule: Q01DX009 (ip), vehicle: other) is reported as 98 % of control.

For `CC(C)=N/N=C(/C(=O)c1ccccc1)c1ccccc1`, the T/C [7] was 109 % of control, the T/C [8] was 109 % of control and the T/C [9] was 97 % of control.

In the case of `COC1/C=C/OC2(C)Oc3c(C)c(O)c4c(O)c(c(C=NOC(c5ccccc5)c5ccccc5)c(O)c4c3C2=O)NC(=O)/C(C)=C/C=C/C(C)C(O)C(C)C(O)C(C)C(OC(C)=O)C1C` (configuration not stated), the T/C (dose: 25.0 mg/kg/injection, schedule: Q04DX003 (ip), vehicle: water) is reported as 102 % of control, the T/C (dose: 50.0 mg/kg/injection, schedule: Q04DX003 (ip), vehicle: water) is reported as 102 % of control and the T/C (dose: 100.0 mg/kg/injection, schedule: Q04DX003 (ip), vehicle: water) is reported as 96 % of control. For the same compound, the T/C (dose: 200.0 mg/kg/injection, schedule: Q04DX003 (ip), vehicle: water) was 98 % of control.

With `C=C1CC2(C)C(=O)CCCC2OC1=O` (configuration not stated) the T/C (dose: 25.0 mg/kg/injection, schedule: Q01DX001 (ip), vehicle: saline) was 91 % of control, the T/C [6] was 100 % of control and the T/C [10] was 102 % of control. For the same compound, the T/C [7] was 106 % of control.

With `CN(C)n1cc(C#N)c(=O)[nH]c1=O` the T/C [11] was 90 % of control, the T/C [12] was 90 % of control and the T/C [13] was 100 % of control. For the same compound, the T/C [14] was 100 % of control and the T/C [15] was 97 % of control.

For `C1OC1CN1CCC(C2CCN(CC3CO3)CC2)CC1` (configuration not stated), the T/C (dose: 0.61 mg/kg/injection, schedule: Q01DX009 (ip), vehicle: saline) was 114 % of control, the T/C (dose: 2.1 mg/kg/injection, schedule: Q01DX009 (ip), vehicle: saline) was 156 % of control and the T/C (dose: 2.9 mg/kg/injection, schedule: Q01DX001 (ip), vehicle: saline) was 121 % of control. For the same compound, the T/C (dose: 3.5 mg/kg/injection, schedule: Q01DX009 (ip), vehicle: saline) was 120 % of control, the T/C (dose: 4.3 mg/kg/injection, schedule: Q01DX001 (ip), vehicle: saline) was 115 % of control and the T/C (dose: 4.4 mg/kg/injection, schedule: Q01DX001 (ip), vehicle: saline) was 159 % of control. For the same compound, the T/C (dose: 6.6 mg/kg/injection, schedule: Q01DX001 (ip), vehicle: saline) was 122 % of control, the T/C (dose: 15.0 mg/kg/injection, schedule: Q01DX001 (ip), vehicle: saline) was 160 % of control and the T/C (dose: 15.0 mg/kg/injection, schedule: Q01DX009 (ip), vehicle: saline) was 150 % of control and 152 % of control. The T/C [6] was 164 % of control, the T/C (dose: 60.0 mg/kg/injection, schedule: Q01DX001 (ip), vehicle: saline) was 156 % of control and the T/C (dose: 60.0 mg/kg/injection, schedule: Q01DX009 (ip), vehicle: saline) was 91 % of control.

With `CCOC(=O)Cn1c(C(F)(F)F)nc2nc(Cl)c(Cl)nc21` the T/C (dose: 50.0 mg/kg/injection, schedule: Q01DX009 (ip), vehicle: saline with Tween-80) was 97 % of control, the T/C [16] was 108 % of control and the T/C [17] was 97 % of control.

`CC(=O)CC(=O)Nc1ccc(Cc2ccccc2)cc1` was tested, and the T/C [7] was 93 % of control, the T/C [8] was 94 % of control and the T/C [9] was 109 % of control.

For `c1ccc(C2OCC3OC(c4ccccc4)OC(C4SCCS4)C3O2)cc1` (configuration not stated), the T/C (dose: 100.0 mg/kg/injection, schedule: Q01DX001 (ip), vehicle: gum acacia) was 92 % of control, the T/C (dose: 200.0 mg/kg/injection, schedule: Q01DX001 (ip), vehicle: gum acacia) was 93 % of control and the T/C (dose: 400.0 mg/kg/injection, schedule: Q01DX001 (ip), vehicle: gum acacia) was 93 % of control.

With `O=C(NN1CCOCC1)c1ccc([N+](=O)[O-])s1` the T/C (dose: 50.0 mg/kg/injection, schedule: Q01DX005 (ip), vehicle: saline) was 98 % of control, the T/C [4] was 102 % of control and the T/C [5] was 98 % of control.

For `Cc1ccc(C)c(NC(=O)Nc2ccccc2C)c1`, the T/C [12] was 88 % of control, the T/C [13] was 86 % of control and the T/C [14] was 101 % of control and 90 % of control. For the same compound, the T/C [15] was 89 % of control and the T/C (dose: 400.0 mg/kg/injection, schedule: Q04DX003 (ip), vehicle: Klucel (hydroxypropylcellulose) (HPC)) was 89 % of control.

`OCC1OC(n2cnc3cncnc32)C(O)C1O` (configuration not stated) was tested, and the T/C (dose: 1.9 mg/kg/injection, schedule: Q01DX015 (ip), vehicle: saline) was 108 % of control, the T/C (dose: 2.5 mg/kg/injection, schedule: Q01DX015 (ip), vehicle: saline) was 104 % of control and the T/C (dose: 2.8 mg/kg/injection, schedule: Q01DX015 (ip), vehicle: saline) was 151 % of control. The T/C (dose: 4.3 mg/kg/injection, schedule: Q01DX015 (ip), vehicle: saline) was 110 % of control, the T/C (dose: 5.0 mg/kg/injection, schedule: Q01DX015 (ip), vehicle: saline) was 106 % of control and the T/C (dose: 6.5 mg/kg/injection, schedule: Q01DX015 (ip), vehicle: saline) was 108 % of control. For the same compound, the T/C (dose: 9.7 mg/kg/injection, schedule: Q01DX015 (ip), vehicle: saline) was 112 % of control, the T/C (dose: 10.0 mg/kg/injection, schedule: Q01DX015 (ip), vehicle: saline) was 118 % of control and the T/C (dose: 20.0 mg/kg/injection, schedule: Q01DX015 (ip), vehicle: saline) was 93 % of control. For the same compound, the T/C [6] was 117 % of control and 122 % of control and the T/C [7] was 123 % of control.

In the case of `c1ccc2sc(SSN3CCOCC3)nc2c1`, the T/C [11] is reported as 97 % of control, the T/C [12] is reported as 113 % of control and the T/C [2] is reported as 101 % of control. The T/C [14] was 91 % of control and the T/C [3] was 92 % of control.

In the case of `O=C1c2ccccc2-c2ccc(NC(=O)C(F)(F)F)cc21`, the T/C [10] is reported as 92 % of control, the T/C (dose: 200.0 mg/kg/injection, schedule: Q01DX001 (ip), vehicle: saline with Tween-80) is reported as 90 % of control and the T/C (dose: 400.0 mg/kg/injection, schedule: Q01DX001 (ip), vehicle: saline with Tween-80) is reported as 92 % of control.

In the case of `COc1ccc(-c2nnc(-c3ccc(OC)c(Cl)c3)nn2)cc1Cl`, the T/C [16] is reported as 86 % of control and the T/C [17] is reported as 86 % of control.
